Patent US10669272B2, “Substituted naphthyridinone compounds useful as T cell activators” (BRISTOL-MYERS SQUIBB COMPANY, priority 2018, dated 2020)
Read-outs that look alike come from different tables or passages of the source.

Tests used:
human DGKα = biological target: T1, human DGKα (Homo sapiens, UniProt P23743); test: DGKα LIPGLO assay (extruded liposome substrate), in vitro DGK inhibition; format: biochemical; details: liposome (LIPGLO) assay; read-out: DGKa LIPGLO IC50
T1 construct: TVMV protease cleavage site (C); Hexa-His (C); made in house; host or cells: Sf9 insect cells (baculovirus, Bac-to-Bac)
T1 sequence (P23743 with tags, fused parts or gaps): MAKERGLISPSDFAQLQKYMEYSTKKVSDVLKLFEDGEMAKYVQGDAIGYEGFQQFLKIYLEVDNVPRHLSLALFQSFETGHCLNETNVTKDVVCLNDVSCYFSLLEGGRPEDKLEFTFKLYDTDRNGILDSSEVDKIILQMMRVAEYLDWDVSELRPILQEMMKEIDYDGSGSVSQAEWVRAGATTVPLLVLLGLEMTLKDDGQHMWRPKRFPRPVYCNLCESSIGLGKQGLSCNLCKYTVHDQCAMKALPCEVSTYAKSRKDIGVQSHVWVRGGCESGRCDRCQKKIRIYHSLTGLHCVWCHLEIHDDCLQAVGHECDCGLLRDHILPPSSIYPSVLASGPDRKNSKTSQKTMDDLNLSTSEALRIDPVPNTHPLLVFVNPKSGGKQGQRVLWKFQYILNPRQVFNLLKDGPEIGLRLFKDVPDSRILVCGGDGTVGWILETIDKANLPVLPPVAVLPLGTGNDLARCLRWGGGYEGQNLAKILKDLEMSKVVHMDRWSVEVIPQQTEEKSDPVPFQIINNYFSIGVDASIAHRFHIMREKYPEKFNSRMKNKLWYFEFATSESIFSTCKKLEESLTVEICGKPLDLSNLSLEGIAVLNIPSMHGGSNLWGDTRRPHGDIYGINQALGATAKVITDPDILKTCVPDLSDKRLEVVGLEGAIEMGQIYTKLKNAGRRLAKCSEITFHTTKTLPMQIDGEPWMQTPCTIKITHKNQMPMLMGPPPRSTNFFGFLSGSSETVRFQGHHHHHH

human DGKζ = biological target: T2, human DGKζ (Homo sapiens, UniProt Q13574); test: DGKζ LIPGLO assay (extruded liposome substrate), in vitro DGK inhibition; format: biochemical; details: liposome (LIPGLO) assay; read-out: DGKz LIPGLO IC50
T2 construct: TVMV protease cleavage site (C); Hexa-His (C); made in house; host or cells: Sf9 insect cells (baculovirus, Bac-to-Bac)
T2 sequence (Q13574 with tags, fused parts or gaps isoform Q13574-4): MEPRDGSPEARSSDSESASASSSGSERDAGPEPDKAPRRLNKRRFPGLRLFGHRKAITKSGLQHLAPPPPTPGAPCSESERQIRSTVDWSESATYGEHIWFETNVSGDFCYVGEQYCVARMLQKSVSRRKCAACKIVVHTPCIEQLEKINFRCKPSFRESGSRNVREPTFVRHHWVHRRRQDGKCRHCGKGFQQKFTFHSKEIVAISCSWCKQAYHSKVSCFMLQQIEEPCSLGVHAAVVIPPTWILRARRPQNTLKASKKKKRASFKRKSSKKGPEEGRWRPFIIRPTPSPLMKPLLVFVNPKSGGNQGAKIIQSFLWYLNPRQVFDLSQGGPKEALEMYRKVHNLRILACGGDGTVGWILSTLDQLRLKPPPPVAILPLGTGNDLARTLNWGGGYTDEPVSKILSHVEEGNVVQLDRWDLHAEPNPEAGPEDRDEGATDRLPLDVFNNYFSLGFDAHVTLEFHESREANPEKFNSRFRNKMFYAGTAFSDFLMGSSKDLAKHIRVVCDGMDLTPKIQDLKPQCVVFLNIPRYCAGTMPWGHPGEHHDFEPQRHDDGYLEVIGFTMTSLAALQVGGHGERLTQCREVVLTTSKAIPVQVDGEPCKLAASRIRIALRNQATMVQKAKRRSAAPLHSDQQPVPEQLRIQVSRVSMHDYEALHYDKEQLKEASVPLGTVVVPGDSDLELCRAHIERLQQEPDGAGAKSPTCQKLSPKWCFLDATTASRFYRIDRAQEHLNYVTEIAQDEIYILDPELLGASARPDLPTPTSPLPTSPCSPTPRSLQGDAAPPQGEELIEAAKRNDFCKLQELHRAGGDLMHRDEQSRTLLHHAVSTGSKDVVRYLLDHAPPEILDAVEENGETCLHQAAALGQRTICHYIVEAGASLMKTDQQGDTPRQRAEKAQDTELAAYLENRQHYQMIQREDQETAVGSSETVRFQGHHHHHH

[1] = system: OT-1 CD8+ T cells with SIINFEKL-loaded MC38 tumor cells; test: Murine cytotoxic T lymphocyte assay (IFN-γ, OT-1 CTL with MC38 tumor cells); format: cell-based, mouse; details: read-out: msCTL INFg IC50
Procedure, shortened: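 OT-1 CD8+ T cells, expanded 5 days with OVA peptide (1 μg/mL) and mIL2, pretreated 1 h with DGK inhibitors, then co-cultured overnight at 37° C at 1:10 with MC38 cells pulsed 3 h with 1 μg/mL SIINFEKL. IFN-γ in 24 h supernatant by AlphaLISA.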

naïve human CD8 T cells = test: Human CD8 T cells IFN-γ assay; format: cell-based; details: normalized to 3 μM reference compound with anti-CD3 plus anti-CD28 as 100% activation, read-out: HuCD8 INFG Normalized EC50;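 further: Naïve human CD8 T cells stimulated with plate-bound anti-CD3 and soluble anti-CD28, IFN-γ in supernatant quantified by AlphaLISA and converted to pg/mL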
Human venous whole blood = test: Human whole blood IFN-γ assay; format: cell-based; details: human whole blood, normalized to 3 μM reference compound with anti-CD3 plus anti-CD28 as 100% activation, read-out: INFg Whole Blood Normalized Agonist EC50;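 further: blood from healthy donors exposed to compound for 1 h before stimulation with anti-CD3 and anti-CD28 at 1 µg/mL each, IFN-γ quantified in supernatant by AlphaLISA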
Description: Human Whole Blood IFN-γ Assay
Human venous whole blood (22.5 μL per well), obtained from healthy donors, was pre-treated with compounds for one hour at 37° C. in a humidified 95% air/5% CO2 incubator. The blood was stimulated with 2.5 μL anti-human CD3 and anti-CD28 mAb at a final concentration of 1 μg/mL each for 24 hours at 37° C. IFN-γ in the supernatants was measured using AlphLISA kit (Cat # AL217).

| Structure (SMILES) | IC50 (human DGKα) [nM] | IC50 (human DGKζ) [nM] | IC50 ([1]; Mus musculus, MC-38) [nM] | EC50 (naïve human CD8 T cells; Homo sapiens, T-cell, 20 h) [nM] | EC50 (Human venous whole blood) [nM] | EC50 (Human venous whole blood; Homo sapiens, 24 h) [nM] | IC50 [1] [nM] | EC50 (naïve human CD8 T cells) [nM] |
| --- | --- | --- | --- | --- | --- | --- | --- | --- |
| Cn1c(=O)cc(N2CCN(C(c3ccc(F)cc3)c3ccc(F)cc3)C(CO)C2)c2nc(C#N)ccc21 (single isomer, unassigned) [Example 2, 8-(4-(bis(4-fluorophenyl)methyl)-3-(hydroxymethyl)piperazin-1-yl)-5-methyl-6-oxo-5,6-dihydro-1,5-naphthyridine-2-carbonitrile] | 2600 | 3300 | 210 | 120 | 2700 |  |  |  |
| COc1cc(F)ccc1C(c1ccc(F)cc1)N1C[C@@H](C)N(c2c([N+](=O)[O-])c(=O)n(C)c3ccc(C#N)nc23)C[C@@H]1C (stereo in doubt) [Example 120, 8-((2R,5S)-4-((4-fluoro-2-methoxyphenyl)(4-fluorophenyl)methyl)-2,5-dimethylpiperazin-1-yl)-5-methyl-7-nitro-6-oxo-5,6-dihydro-1,5-naphthyridine-2-carbonitrile] | 110000 | 240000 | 4700 | 1000 |  | 20000 |  |  |
| Cc1ccc(C(c2ccc(Cl)cc2)N2C[C@H](C)N(c3cc(=O)n(C)c4ccc(C#N)nc34)C[C@H]2C)cc1 (single isomer, unassigned) [Example 247] | 370 | 210 | 110 | 120 |  | 390 |  |  |
| Cn1c(=O)c(Cl)c(N2CCN(C(c3ccc(F)cc3)c3ccc(F)cc3)C(CO)C2)c2nc(C#N)ccc21 (single isomer, unassigned) [Example 101, 8-(4-(bis (4-fluorophenyl)methyl)-3-(hydroxymethyl)piperazin-1-yl)-7-chloro-5-methyl-6-oxo-5,6-dihydro-1,5-naphthyridine-2-carbonitrile] | 3300 | 1600 |  |  | 2300 |  | 140 | 77 |
| CC(C)[C@@H]1CN(c2c(C#N)c(=O)n(C)c3ccc(C#N)nc23)CCN1C(c1ccc(F)cc1)c1ccc(F)cc1 [Example 169, (R)-8-(4-(bis(4-fluorophenyl)methyl)-3-isopropylpiperazin-1-yl)-5-methyl-6-oxo-5,6-dihydro-1,5-naphthyridine-2,7-dicarbonitrile] | 3200 | 77000 | 2600 | 440 |  | 13000 |  |  |
| C[C@@H]1CN(c2cc(=O)n(C)c3ccc(C#N)nc23)[C@@H](C)CN1C(c1ccc(F)cc1)c1ccc(C#N)cc1 (single isomer, unassigned) [Example 307] | 470 | 1000 |  |  | 330 |  | 31 | 30 |
| CC(C)C(C)(O)C1CN(c2cc(=O)n(C)c3ccc(C#N)nc23)CCN1C(c1ccc(F)cc1)c1ccc(F)cc1 (single isomer, unassigned) [Example 88, 8-(4-(bis(4-fluorophenyl)methyl)-3-(2-hydroxy-3-methylbutan-2-yl)piperazin-1-yl)-5-methyl-6-oxo-5,6-dihydro-1,5-naphthyridine-2-carbonitrile] | 140000 | 240000 |  | 2000 |  | 10000 | 990 |  |
| COC(=O)C1CN(C(c2ccc(F)cc2)c2ccc(F)cc2)CCN1c1c(C#N)c(=O)n(C)c2ccc(C#N)nc12 (single isomer, unassigned) [Example 116, Methyl 4-(bis(4-fluorophenyl)methyl)-1-(3,6-dicyano-1-methyl-2-oxo-1,2-dihydro-1,5-naphthyridin-4-yl)piperazine-2-carboxylate] | 9500 | 3600 |  | 160 |  | 3300 | 560 |  |
| CC[C@@H]1CN(c2c(F)c(=O)n(C)c3ccc(C#N)nc23)CCN1C(c1ccc(F)cc1)c1ccc(F)cc1 [Example 174, (R)-8-(4-(bis(4-fluorophenyl)methyl)-3-ethylpiperazin-1-yl)-7-fluoro-5-methyl-6-oxo-5,6-dihydro-1,5-naphthyridine-2-carbonitrile] | 820 | 430 | 110 | 34 |  | 2200 |  |  |
| COC(=O)C1CN(C(c2ccc(F)cc2)c2ccc(F)cc2)CCN1c1c(C#N)c(=O)n(C)c2ccc(C#N)nc12 (single isomer, unassigned) [Example 117, Methyl 4-(bis(4-fluorophenyl)methyl)-1-(3,6-dicyano-1-methyl-2-oxo-1,2-dihydro-1,5-naphthyridin-4-yl)piperazine-2-carboxylate] | 350 | 7200 |  |  | 2500 |  | 270 | 280 |
| COc1cc(F)ccc1C(c1ccc(F)cc1)N1C[C@H](C)N(c2cc(=O)n(C)c3ccc(C#N)nc23)C[C@H]1C (single isomer, unassigned) [Example 109] | 24000 | 100 |  |  | 1300 |  | 480 | 15 |
| CC(C)[C@@H]1CN(c2cc(=O)n(C)c3ccc(C#N)nc23)CCN1C(c1ccc(Cl)cc1)c1ccc(Cl)cc1 [Example 167, (R)-8-(4-(bis(4-chlorophenyl)methyl)-3-isopropylpiperazin-1-yl)-5-methyl-6-oxo-5,6-dihydro-1,5-naphthyridine-2-carbonitrile] | 7700 | 58000 | 10000 | 10000 |  | 20000 |  |  |
| CC[C@H]1CN(c2cc(=O)n(C)c3ccc(C#N)nc23)CCN1C(c1ccc(F)cc1)c1ccc(F)cc1 [Example 128, (S)-8-(4-(bis(4-fluorophenyl)methyl)-3-ethylpiperazin-1-yl)-5-methyl-6-oxo-5,6-dihydro-1,5-naphthyridine-2-carbonitrile] | 47000 | 2000 | 940 | 1400 |  | 20000 |  |  |
| Cn1c(=O)cc(N2CCN(C(c3ccc(F)cc3)c3ccc(F)cc3)C(C(C)(C)O)C2)c2nc(C#N)ccc21 (single isomer, unassigned) [Example 79, 8-(4-(bis(4-fluorophenyl)methyl)-3-(2-hydroxypropan-2-yl)piperazin-1-yl)-5-methyl-6-oxo-5,6-dihydro-1,5-naphthyridine-2-carbonitrile] | 6700 | 240000 |  |  | 10000 |  | 8000 | 10000 |
| Cn1c(=O)cc(N2CCN(C(c3ccc(F)cc3)c3ccc(F)cc3)C(C(=O)OC3CC3)C2)c2nc(C#N)ccc21 (single isomer, unassigned) [Example 106, cyclopropyl 1-(bis(4-fluorophenyl)methyl)-4-(6-cyano-1-methyl-2-oxo-1,2-dihydro-1,5-naphthyridin-4-yl)piperazine-2-carboxylate] | 240000 | 13000 |  |  |  | 8500 | 2900 | 610 |
| Cn1c(=O)cc(N2CCN(C(c3ccc(F)cc3)c3ccc(F)cc3)C(CF)C2)c2nc(C#N)ccc21 (stereo not shown) [Example 8, 8-(4-(bis(4-fluorophenyl)methyl)-3-(fluoromethyl)piperazin-1-yl)-5-methyl-6-oxo-5,6-dihydro-1,5-naphthyridine-2-carbonitrile] | 17000 | 5000 | 1000 | 230 |  | 14000 |  |  |
| Cc1ccc(C(c2ccc(F)cc2)N2C[C@H](C)N(c3cc(=O)n(C)c4ccc(C#N)nc34)C[C@H]2C)cc1 (single isomer, unassigned) [Example 252] | 660 | 440 |  |  | 430 |  | 22 | 160 |
| CC[C@@H]1CN(c2c(Cl)c(=O)n(C)c3ccc(C#N)nc23)CCN1C(c1ccc(F)cc1)c1ccc(F)cc1 [Example 175, (R)-8-(4-(bis(4-fluorophenyl)methyl)-3-ethylpiperazin-1-yl)-7-chloro-5-methyl-6-oxo-5,6-dihydro-1,5-naphthyridine-2-carbonitrile] | 2400 | 330 | 610 | 51 |  | 4300 |  |  |
| Cn1c(=O)cc(N2CCN(C(c3ccc(F)cc3)c3ccc(F)cc3)C(C#N)C2)c2nc(C#N)ccc21 (single isomer, unassigned) [Example 45, 8-(4-(bis(4-fluorophenyl)methyl)-3-cyanopiperazin-1-yl)-5-methyl-6-oxo-5,6-dihydro-1,5-naphthyridine-2-carbonitrile] | 7200 | 2400 |  |  | 2300 |  | 910 | 530 |
| Cc1cc(C2CN(c3cc(=O)n(C)c4ccc(C#N)nc34)CC(C)N2C(c2ccc(F)cc2)c2ccc(F)cc2)ccn1 (stereo not shown) [Example 84, 8-(4-(bis(4-fluorophenyl)methyl)-3-methyl-5-(2-methylpyridin-4-yl)piperazin-1-yl)-5-methyl-6-oxo-5,6-dihydro-1,5-naphthyridine-2-carbonitrile] | 81000 | 240000 | 10000 | 10000 |  | 20000 |  |  |
